Experimental data published in ChEMBL document CHEMBL1909046, “DrugMatrix in vitro pharmacology data”.

Columns and labels:
Calcitonin receptor = biological target: T1, Calcitonin receptor (Homo sapiens, UniProt P30988); format: cell membranes, Membrane; settings: t47d; also: in other assays of this panel Not Active means under 50% inhibition at 10 µM
T1 sequence (P30988 whole entry): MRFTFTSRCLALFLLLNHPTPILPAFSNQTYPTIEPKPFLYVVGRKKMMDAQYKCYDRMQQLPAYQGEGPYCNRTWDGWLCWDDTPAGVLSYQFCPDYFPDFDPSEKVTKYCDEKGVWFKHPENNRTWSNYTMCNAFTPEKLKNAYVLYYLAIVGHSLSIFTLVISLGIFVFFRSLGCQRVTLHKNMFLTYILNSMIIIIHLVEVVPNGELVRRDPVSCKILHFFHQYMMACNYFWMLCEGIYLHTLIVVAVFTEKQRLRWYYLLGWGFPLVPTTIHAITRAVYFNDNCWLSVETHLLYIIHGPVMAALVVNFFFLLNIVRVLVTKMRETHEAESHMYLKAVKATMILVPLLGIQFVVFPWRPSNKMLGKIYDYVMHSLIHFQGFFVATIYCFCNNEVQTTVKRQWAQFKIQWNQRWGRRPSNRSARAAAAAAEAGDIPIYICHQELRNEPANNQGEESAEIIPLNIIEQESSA

Interstitial collagenase = biological target: T2, Interstitial collagenase (Homo sapiens, UniProt P03956); experiment: biochemical; format: tissue-based, Rheumatoid synovial fibroblasts;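 also: MMP-1 enzyme inhibition assay using a peptide substrate; in other assays of this panel Not Active means under 50% inhibition at 10 µM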
T2 sequence (P03956 whole entry): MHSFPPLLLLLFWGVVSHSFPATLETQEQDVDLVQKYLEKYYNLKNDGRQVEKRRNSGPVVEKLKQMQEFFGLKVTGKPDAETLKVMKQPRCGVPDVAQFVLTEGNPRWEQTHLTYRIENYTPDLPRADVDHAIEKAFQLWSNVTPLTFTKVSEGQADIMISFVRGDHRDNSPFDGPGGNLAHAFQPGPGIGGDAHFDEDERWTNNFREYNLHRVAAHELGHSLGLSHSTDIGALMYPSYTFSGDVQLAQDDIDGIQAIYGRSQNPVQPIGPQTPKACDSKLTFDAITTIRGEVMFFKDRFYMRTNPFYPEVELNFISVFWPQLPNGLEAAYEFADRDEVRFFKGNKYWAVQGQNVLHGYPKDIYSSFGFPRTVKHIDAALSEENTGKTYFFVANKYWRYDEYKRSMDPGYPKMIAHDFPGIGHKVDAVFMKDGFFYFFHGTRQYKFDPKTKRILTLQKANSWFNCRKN

Substance-K receptor = biological target: T3, Substance-K receptor (Homo sapiens, UniProt P21452); format: cell membranes, CHO, Membrane; settings: cho; also: in other assays of this panel Not Active means under 50% inhibition at 10 µM
T3 sequence (P21452 whole entry): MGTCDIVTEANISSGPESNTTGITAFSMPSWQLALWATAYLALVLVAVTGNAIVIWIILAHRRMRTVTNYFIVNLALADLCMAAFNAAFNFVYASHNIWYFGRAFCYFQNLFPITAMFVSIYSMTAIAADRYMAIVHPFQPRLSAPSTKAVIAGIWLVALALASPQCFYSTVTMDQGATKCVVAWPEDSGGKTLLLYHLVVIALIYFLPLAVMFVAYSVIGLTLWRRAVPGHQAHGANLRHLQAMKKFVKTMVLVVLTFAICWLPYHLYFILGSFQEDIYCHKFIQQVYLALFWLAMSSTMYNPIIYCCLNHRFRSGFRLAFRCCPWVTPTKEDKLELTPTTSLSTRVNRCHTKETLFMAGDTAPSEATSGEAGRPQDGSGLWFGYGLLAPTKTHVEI

[1] = DRUGMATRIX: Calcium Channel Type L, Phenylalkylamine radioligand binding (ligand: [3H] (-)-Desmethoxyverapamil (D-888)); format: cell membranes, Rattus norvegicus, Wistar, Brain, Membrane; settings: Not Active = under 50% inhibition at 10 µM
[2] = biological target: T4, Amine oxidase [flavin-containing] A (Homo sapiens, UniProt P21397); experiment: DRUGMATRIX: Monoamine Oxidase MAO-A enzyme inhibition (substrate: Kynuramine); set-up: species or system BTI-TN-5B1-4; settings: bti-tn-5b1-4; Not Active = under 50% inhibition at 10 µM
T4 sequence (P21397 whole entry): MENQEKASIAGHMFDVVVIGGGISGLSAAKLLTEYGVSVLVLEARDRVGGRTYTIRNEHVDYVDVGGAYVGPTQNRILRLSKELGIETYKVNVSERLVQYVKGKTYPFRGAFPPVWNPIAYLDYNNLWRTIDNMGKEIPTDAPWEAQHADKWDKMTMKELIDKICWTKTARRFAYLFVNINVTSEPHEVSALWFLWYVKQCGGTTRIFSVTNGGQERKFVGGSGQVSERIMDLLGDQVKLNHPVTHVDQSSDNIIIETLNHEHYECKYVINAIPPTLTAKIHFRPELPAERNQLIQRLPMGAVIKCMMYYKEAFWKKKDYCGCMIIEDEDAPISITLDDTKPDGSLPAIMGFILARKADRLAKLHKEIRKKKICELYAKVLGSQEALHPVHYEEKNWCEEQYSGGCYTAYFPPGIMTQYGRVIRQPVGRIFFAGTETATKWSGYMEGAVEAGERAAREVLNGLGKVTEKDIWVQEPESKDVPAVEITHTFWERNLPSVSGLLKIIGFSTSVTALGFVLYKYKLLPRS

Endothelin-1 receptor = biological target: T5, Endothelin-1 receptor (Homo sapiens, UniProt P25101); format: cell membranes, Membrane; settings: cho-k1; also: in other assays of this panel Not Active means under 50% inhibition at 10 µM
T5 sequence (P25101 whole entry): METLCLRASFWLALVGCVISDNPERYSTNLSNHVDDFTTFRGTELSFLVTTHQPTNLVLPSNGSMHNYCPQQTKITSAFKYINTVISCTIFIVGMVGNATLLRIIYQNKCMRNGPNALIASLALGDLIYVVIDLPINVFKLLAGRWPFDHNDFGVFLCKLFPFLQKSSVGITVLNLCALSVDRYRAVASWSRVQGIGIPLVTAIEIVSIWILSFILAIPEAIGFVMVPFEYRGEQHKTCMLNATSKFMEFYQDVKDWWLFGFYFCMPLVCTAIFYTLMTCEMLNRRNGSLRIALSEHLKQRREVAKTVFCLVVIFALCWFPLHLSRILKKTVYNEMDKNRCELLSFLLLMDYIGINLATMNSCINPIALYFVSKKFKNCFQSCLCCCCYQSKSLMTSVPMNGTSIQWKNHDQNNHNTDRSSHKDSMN

Vasopressin V1a receptor = Vasopressin V1a receptor (Homo sapiens, UniProt P37288); format: cell membranes, Membrane; settings: hek293; also: in other assays of this panel Not Active means under 50% inhibition at 10 µM
Sequence of Vasopressin V1a receptor (P37288 whole entry): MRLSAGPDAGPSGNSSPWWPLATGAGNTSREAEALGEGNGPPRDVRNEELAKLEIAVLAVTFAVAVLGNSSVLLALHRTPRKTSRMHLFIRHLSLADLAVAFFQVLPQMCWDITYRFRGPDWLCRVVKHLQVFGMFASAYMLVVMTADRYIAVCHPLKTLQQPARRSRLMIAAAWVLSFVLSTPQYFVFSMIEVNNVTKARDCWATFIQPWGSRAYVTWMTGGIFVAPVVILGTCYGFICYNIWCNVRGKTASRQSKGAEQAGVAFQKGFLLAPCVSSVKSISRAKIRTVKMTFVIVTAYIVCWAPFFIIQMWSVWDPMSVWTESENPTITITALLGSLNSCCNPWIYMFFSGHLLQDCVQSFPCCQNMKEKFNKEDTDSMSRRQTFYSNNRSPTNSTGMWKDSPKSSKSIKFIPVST

LEAD(IV) ACETATE
Not Active: IC50 (Calcitonin receptor) | Ki (Calcitonin receptor) | IC50 (Interstitial collagenase) | Ki (Interstitial collagenase) | IC50 (Substance-K receptor) | Ki (Substance-K receptor) | IC50 [1] | Ki [1] | IC50 [2] | Ki [2] | IC50 (Endothelin-1 receptor) | Ki (Endothelin-1 receptor) | IC50 (Vasopressin V1a receptor) | Ki (Vasopressin V1a receptor)

CC(O)C(=O)O (configuration not stated) [LACTIC ACID]
Not Active: IC50 (Calcitonin receptor) | IC50 (Interstitial collagenase) | IC50 (Substance-K receptor) | IC50 [1] | Ki [1] | IC50 [2] | IC50 (Endothelin-1 receptor) | IC50 (Vasopressin V1a receptor)
